species: Oryctolagus cuniculus; assay: Inhibitory concentration against peroxidation of rabbits red blood cell (RBC) membrane ghost induced by gamma-ray irradiation; assay type: functional; details: light or radiation study

SMILES	IC50
CC(=O)/C=C/c1cc(Cl)ccc1O	60.3 µM
CC(=O)/C=C/c1ccccc1O	37.8 µM
COc1ccc(/C=C/C(C)=O)c(O)c1	35.5 µM
CC(=O)/C=C/c1ccc(O)cc1	66.1 µM
CC(=O)/C=C/c1cccc(F)c1O	51.2 µM
CC(=O)/C=C/c1cc(C)ccc1O	8 µM
CC(=O)/C=C/c1cc(C)c(O)c(C)c1	6.32 µM
COc1cc(/C=C/C(C)=O)ccc1O [DEHYDROZINGERONE]	11.5 µM
CCOc1cccc(/C=C/C(C)=O)c1O	3.31 µM
CC(=O)/C=C/c1cc(C(C)(C)C)ccc1O	8 µM
CC(=O)/C=C/c1cccc(C)c1O	3.63 µM
COc1ccc(O)c(/C=C/C(C)=O)c1	3.98 µM

Further molecules by falling IC50, results first:

IC50	SMILES
3.25 µM	COc1cccc(/C=C/C(C)=O)c1O
2.52 µM	COc1cc(/C=C/C(C)=O)cc(OC)c1O
2.34 µM	CC(=O)/C=C/c1ccc(O)c(O)c1
2.19 µM	CC(=O)/C=C/c1cccc(C(C)(C)C)c1O
1.96 µM	CC(=O)/C=C/c1cccc(O)c1O
1.43 µM	CC(=O)/C=C/c1cc(O)ccc1O

From ChEMBL document CHEMBL1139592, “Quantitative structure-activity relationship studies for antioxidant hydroxybenzalacetones by quantum chemical- and 3-D-QSAR(CoMFA) analyses” (Bioorg Med Chem Lett, 2005)
